The source made the active and inactive calls. The calls are words filed in the database; no cut-off is given here.
Assays:
[1] = molecular target: T1, Retinoic acid receptor RXR-alpha (Homo sapiens, UniProt P19793); assay: Antagonist activity at RXRalpha expressed in COS1 cells assessed as inhibition of NEt-3IP-induced luciferase activity after 18 hrs by reporter gene assay relative to LGD1069; type: functional, cell-based, COS-1
T1 sequence (P19793 whole entry): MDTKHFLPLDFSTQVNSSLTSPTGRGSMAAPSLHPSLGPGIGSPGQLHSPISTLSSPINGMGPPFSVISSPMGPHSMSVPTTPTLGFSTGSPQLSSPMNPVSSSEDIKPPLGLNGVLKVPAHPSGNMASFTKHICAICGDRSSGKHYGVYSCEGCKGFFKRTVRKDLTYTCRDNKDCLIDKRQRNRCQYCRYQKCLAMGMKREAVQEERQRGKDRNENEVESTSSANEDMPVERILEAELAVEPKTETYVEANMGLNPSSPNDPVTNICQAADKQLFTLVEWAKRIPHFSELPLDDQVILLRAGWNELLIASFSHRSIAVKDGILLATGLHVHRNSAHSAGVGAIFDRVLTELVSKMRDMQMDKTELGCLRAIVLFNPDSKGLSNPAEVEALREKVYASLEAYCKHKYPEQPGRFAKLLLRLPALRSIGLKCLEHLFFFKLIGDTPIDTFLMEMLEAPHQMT

[2] = molecular target: T1, Retinoic acid receptor RXR-alpha; assay: (§1) Antagonist activity at RXRalpha expressed in COS1 cells assessed as inhibition of NEt-TMN-induced luciferase activity after 18 hrs by reporter gene assay relative to LGD1069; type: functional, cell-based, COS-1
[3] = molecular target: T2, Retinoic acid receptor RXR-alpha (Homo sapiens) (UniProt P19793); assay: as §1; type: functional, cell-based; details: COS-1
T2 sequence (whole entry): T1 sequence (P19793 whole entry)

SMILES | Kb [1] [nM] | Kb [2] [nM] | Activity [3]
CCN(c1ccc(C(=O)O)cn1)c1cc(OCC(C)C)c(C(C)C)cc1/C=C/c1ccccc1 | 5.5 | 5.89 | Active
CCCCCCOc1cc2c(cc1N(C)c1ncc(C(=O)O)cn1)C(C)(C)CCC2(C)C | – | 77.6 | Active
CCN(c1ccc(C(=O)O)cn1)c1cc(OCC(C)C)c(C(C)C)cc1Nc1ccccc1 | – | – | Active
CCN(c1ccc(C(=O)O)cn1)c1cc(OCC(C)C)c(C(C)C)cc1-c1ccccc1 | – | – | inactive

From ChEMBL document CHEMBL2029300, “Discovery of a Potent Retinoid X Receptor Antagonist Structurally Closely Related to RXR Agonist NEt-3IB” (ACS Med Chem Lett, 2011)
